Experimental data as given in the OligoGym collection.
HELM strings list units from the 5' end as sugar, base in round brackets, then linkage (d deoxyribose, r ribose, m 2'-O-methyl, p phosphodiester). Strings are as the collection lists them, not checked against the first reports. ss, as = sense and antisense strand; [lna] = locked nucleic acid (LNA); [una] = unlocked nucleic acid; [hna] = hexitol nucleic acid; [s4r] = 4'-thioribose; [fl2r] = 2'-fluoro

details: siRNA
Further: test system not given here.

Substance	target mRNA knockdown [%]
RNA1{[s4r](A)p.[s4r](A)p.[s4r](A)p.[s4r](C)p.r(A)p.r(U)p.r(G)p.r(C)p.r(A)p.r(G)p.r(A)p.r(A)p.r(A)p.r(A)p.r(U)p.r(G)p.r(C)p.r(U)p.r(G)p.r(T)p.r(T)}|RNA2{[s4r](C)p.[s4r](A)p.r(G)p.r(C)p.r(A)p.r(U)p.r(U)p.r(U)p.r(U)p.r(C)p.r(U)p.r(G)p.r(C)p.r(A)p.r(U)p.r(G)p.r(U)p.[s4r](U)p.[s4r](U)p.r(T)p.r(T)}$$$RNA1{StrandType:ss}|RNA2{StrandType:as}$	60.2
RNA1{[fl2r](A)p.r(G)p.[fl2r](U)p.r(U)p.[fl2r](U)p.r(C)p.[fl2r](U)p.r(A)p.[fl2r](G)p.r(G)p.[fl2r](G)p.[fl2r](C)p.r(C)p.[fl2r](G)p.r(U)p.r(G)p.[fl2r](G)p.r(C)p.r(C)p.r(T)p.r(T)}|RNA2{r(G)p.r(G)p.r(C)p.r(C)p.r(A)p.r(C)p.r(G)p.r(G)p.r(C)p.r(C)p.r(C)p.r(U)p.r(A)p.r(G)p.r(A)p.r(A)p.r(A)p.r(C)p.r(U)p.r(T)p.r(T)}$$$RNA1{StrandType:ss}|RNA2{StrandType:as}$	75
RNA1{[s4r](A)p.[s4r](A)p.r(A)p.r(C)p.r(A)p.r(U)p.r(G)p.r(C)p.r(A)p.r(G)p.r(A)p.r(A)p.r(A)p.r(A)p.r(U)p.r(G)p.r(C)p.r(U)p.r(G)p.r(T)p.r(T)}|RNA2{r(C)p.r(A)p.r(G)p.r(C)p.r(A)p.r(U)p.r(U)p.r(U)p.r(U)p.r(C)p.r(U)p.r(G)p.r(C)p.r(A)p.r(U)p.r(G)p.r(U)p.[s4r](U)p.[s4r](U)p.r(T)p.r(T)}$$$RNA1{StrandType:ss}|RNA2{StrandType:as}$	72.4
RNA1{r(G)p.r(G)p.r(A)p.r(C)p.r(A)p.r(U)p.r(U)p.r(C)p.r(A)p.r(G)p.r(A)p.r(A)p.r(C)p.r(A)p.r(A)p.r(G)p.r(A)p.r(A)p.r(A)p.[una](U)p.[una](U)}|RNA2{r(U)p.r(U)p.r(U)p.r(C)p.r(U)p.r(U)p.r(G)p.r(U)p.r(U)p.[una](C)p.r(U)p.r(G)p.r(A)p.r(A)p.r(U)p.r(G)p.r(U)p.r(C)p.r(C)p.[una](U)p.[una](U)}$$$RNA1{StrandType:ss}|RNA2{StrandType:as}$	17
RNA1{[hna](G)p.[hna](A)p.[hna](C)p.r(G)p.r(U)p.r(A)p.r(A)p.r(A)p.r(C)p.r(G)p.r(G)p.r(C)p.r(C)p.r(A)p.r(C)p.r(A)p.r(A)p.[hna](G)p.[hna](U)p.[hna](U)p.d(T)}|RNA2{r(A)p.[hna](C)p.r(U)p.r(U)p.r(G)p.r(U)p.r(G)p.r(G)p.r(C)p.r(C)p.r(G)p.r(U)p.r(U)p.r(U)p.r(A)p.r(C)p.r(G)p.[hna](U)p.[hna](C)p.[hna](G)p.d(T)}$$$RNA1{StrandType:ss}|RNA2{StrandType:as}$	77.4
RNA1{r(A)p.r(C)p.r(C)p.r(U)p.[fl2r](U)p.r(A)p.r(A)p.r(G)p.r(G)p.r(A)p.r(C)p.[fl2r](C)p.[fl2r](A)p.r(C)p.r(C)p.r(G)p.r(G)p.r(A)p.r(U)p.r(T)p.r(T)}|RNA2{r(A)p.r(U)p.r(C)p.r(C)p.r(G)p.r(G)p.[fl2r](U)p.[fl2r](G)p.r(G)p.r(U)p.r(C)p.r(C)p.r(U)p.[fl2r](U)p.[fl2r](A)p.r(A)p.r(G)p.r(G)p.r(U)p.r(T)p.r(T)}$$$RNA1{StrandType:ss}|RNA2{StrandType:as}$	70
RNA1{[fl2r](C)p.r(U)p.[fl2r](A)p.r(G)p.[fl2r](A)p.r(G)p.[fl2r](G)p.r(A)p.[fl2r](U)p.r(C)p.[fl2r](U)p.r(U)p.[fl2r](G)p.r(A)p.[fl2r](A)p.r(G)p.[fl2r](A)p.r(C)p.[fl2r](C)p.r(T)p.r(T)}|RNA2{[fl2r](G)p.[fl2r](G)p.r(U)p.r(C)p.r(U)p.r(U)p.r(C)p.r(A)p.r(A)p.[fl2r](G)p.r(A)p.r(U)p.r(C)p.r(C)p.r(U)p.r(C)p.r(U)p.r(A)p.[fl2r](G)p.r(T)p.r(T)}$$$RNA1{StrandType:ss}|RNA2{StrandType:as}$	38
RNA1{r(G)p.r(U)p.r(A)p.r(U)p.r(G)p.r(A)p.r(C)p.r(C)p.r(G)p.r(A)p.r(C)p.r(U)p.r(A)p.r(C)p.r(G)p.r(C)p.r(G)p.r(U)p.r(A)p.r(T)p.r(T)}|RNA2{r(U)p.r(U)p.r(C)p.r(A)p.r(G)p.r(U)p.r(G)p.r(U)p.r(G)p.r(A)p.r(U)p.r(G)p.r(A)p.r(C)p.r(A)p.r(C)p.r(U)p.[una](U)p.r(G)p.r(T)p.r(T)}$$$RNA1{StrandType:ss}|RNA2{StrandType:as}$	91
RNA1{r(A)p.r(G)p.r(A)p.r(A)p.r(A)p.r(C)p.r(G)p.r(C)p.r(A)p.r(G)p.m(U)p.r(A)p.r(A)p.r(U)p.r(C)p.r(C)p.r(G)p.r(G)p.r(A)p.r(T)p.r(T)}|RNA2{r(U)p.r(C)p.r(C)p.r(G)p.r(G)p.r(A)p.r(U)p.r(U)p.r(A)p.r(C)p.m(U)p.r(G)p.r(C)p.r(G)p.r(U)p.r(U)p.r(U)p.r(C)p.r(U)p.r(T)p.r(T)}$$$RNA1{StrandType:ss}|RNA2{StrandType:as}$	82
RNA1{[s4r](A)p.[s4r](A)p.[s4r](A)p.[s4r](C)p.r(A)p.r(U)p.r(G)p.r(C)p.r(A)p.r(G)p.r(A)p.r(A)p.r(A)p.r(A)p.r(U)p.[s4r](G)p.[s4r](C)p.[s4r](U)p.[s4r](G)p.r(T)p.r(T)}|RNA2{[s4r](C)p.[s4r](A)p.r(G)p.r(C)p.r(A)p.r(U)p.r(U)p.r(U)p.r(U)p.r(C)p.r(U)p.r(G)p.r(C)p.r(A)p.r(U)p.r(G)p.r(U)p.[s4r](U)p.[s4r](U)p.r(T)p.r(T)}$$$RNA1{StrandType:ss}|RNA2{StrandType:as}$	66.3
RNA1{r(G)p.r(C)p.r(U)p.r(U)p.m(U)p.m(A)p.r(A)p.r(G)p.r(G)p.r(A)p.r(A)p.r(C)p.m(U)p.r(G)p.r(G)p.r(A)p.r(A)p.r(G)p.r(G)p.r(T)p.r(T)}|RNA2{r(C)p.r(C)p.r(U)p.r(U)p.r(C)p.m(C)p.r(A)p.r(G)p.r(U)p.r(U)p.r(C)p.r(C)p.r(U)p.m(U)p.m(A)p.r(A)p.r(A)p.r(G)p.r(C)p.r(T)p.r(T)}$$$RNA1{StrandType:ss}|RNA2{StrandType:as}$	72
RNA1{r(A)p.r(C)p.r(C)p.r(G)p.r(A)p.r(C)p.r(G)p.r(A)p.r(U)p.r(U)p.r(C)p.r(U)p.r(U)p.r(C)p.m(U)p.r(A)p.r(C)p.r(U)p.r(C)p.r(T)p.r(T)}|RNA2{r(G)p.r(A)p.r(G)p.m(U)p.r(A)p.r(G)p.r(A)p.r(A)p.r(G)p.m(A)p.m(A)p.r(U)p.r(C)p.r(G)p.r(U)p.r(C)p.r(G)p.r(G)p.r(U)p.r(T)p.r(T)}$$$RNA1{StrandType:ss}|RNA2{StrandType:as}$	67
RNA1{m(G)p.r(G)p.m(G)p.r(G)p.m(C)p.r(U)p.m(C)p.r(U)p.m(U)p.r(C)p.m(U)p.r(A)p.m(C)p.r(A)p.m(U)p.r(U)p.m(C)p.r(C)p.m(C)p.r(T)p.r(T)}|RNA2{r(G)p.r(G)p.r(G)p.r(A)p.r(A)p.r(U)p.r(G)p.r(U)p.r(A)p.r(G)p.r(A)p.r(A)p.r(G)p.r(A)p.r(G)p.r(C)p.r(C)p.r(C)p.r(C)p.r(T)p.r(T)}$$$RNA1{StrandType:ss}|RNA2{StrandType:as}$	51
RNA1{[lna](C)p.r(U)p.r(A)p.r(A)p.r(G)p.r(G)p.r(A)p.r(C)p.r(C)p.r(U)p.r(A)p.r(A)p.r(C)p.r(A)p.r(A)p.r(A)p.r(G)p.r(U)p.r(U)p.r(U)p.r(U)}|RNA2{r(A)p.r(A)p.r(C)p.r(U)p.r(U)p.r(U)p.r(G)p.r(U)p.r(U)p.r(A)p.r(G)p.r(G)p.r(U)p.r(C)p.r(C)p.r(U)p.r(U)p.r(A)p.r(G)p.r(U)p.r(U)}$$$RNA1{StrandType:ss}|RNA2{StrandType:as}$	64
RNA1{r(G)p.r(A)p.r(C)p.r(G)p.r(U)p.r(A)p.r(A)p.r(A)p.r(C)p.r(G)p.r(G)p.r(C)p.r(C)p.r(A)p.r(C)p.r(A)p.r(A)p.r(G)p.[hna](U)p.[hna](U)p.r(C)}|RNA2{[fl2r](A)p.m(C)p.[fl2r](U)p.m(U)p.[fl2r](G)p.m(U)p.[fl2r](G)p.m(G)p.[fl2r](C)p.m(C)p.[fl2r](G)p.m(U)p.[fl2r](U)p.m(U)p.[fl2r](A)p.m(C)p.[fl2r](G)p.m(U)p.[fl2r](C)p.m(G)p.[fl2r](C)}$$$RNA1{StrandType:ss}|RNA2{StrandType:as}$	45.8
RNA1{m(G)p.m(C)p.m(A)p.m(G)p.m(C)p.m(A)p.m(C)p.m(G)p.m(A)p.m(C)p.m(U)p.m(U)p.m(C)p.m(U)p.m(U)p.m(C)p.m(A)p.m(A)p.m(G)p.r(T)p.r(T)}|RNA2{r(C)p.r(U)p.r(U)p.r(G)p.r(A)p.r(A)p.r(G)p.r(A)p.r(A)p.r(G)p.r(U)p.r(C)p.r(G)p.r(U)p.r(G)p.r(C)p.r(U)p.r(G)p.r(C)p.r(T)p.r(T)}$$$RNA1{StrandType:ss}|RNA2{StrandType:as}$	25
RNA1{r(A)p.r(A)p.r(C)p.r(C)p.r(C)p.r(A)p.r(A)p.r(A)p.r(G)p.r(G)p.r(G)p.r(G)p.r(A)p.r(G)p.r(U)p.m(U)p.r(G)p.r(C)p.r(U)p.r(T)p.r(T)}|RNA2{r(A)p.r(G)p.r(C)p.r(A)p.r(A)p.r(C)p.r(U)p.r(C)p.r(C)p.r(C)p.r(C)p.r(U)p.r(U)p.m(U)p.r(G)p.r(G)p.r(G)p.r(U)p.r(U)p.r(T)p.r(T)}$$$RNA1{StrandType:ss}|RNA2{StrandType:as}$	83
RNA1{r(A)p.r(A)p.r(C)p.r(C)p.r(C)p.r(A)p.r(C)p.r(C)p.r(A)p.r(C)p.r(A)p.r(G)p.r(C)p.m(U)p.m(A)p.r(G)p.r(A)p.r(A)p.r(C)p.r(U)p.r(U)}|RNA2{r(A)p.r(A)p.r(G)p.r(U)p.r(U)p.r(C)p.r(U)p.r(A)p.r(G)p.r(C)p.r(U)p.r(G)p.r(U)p.r(G)p.r(G)p.r(U)p.r(G)p.r(G)p.r(G)p.r(U)p.r(U)}$$$RNA1{StrandType:ss}|RNA2{StrandType:as}$	79
RNA1{r(U)p.r(C)p.r(U)p.r(C)p.r(G)p.m(U)p.m(A)p.r(A)p.r(G)p.r(G)p.r(A)p.r(C)p.r(G)p.r(A)p.m(A)p.r(A)p.m(C)p.r(G)p.r(A)p.r(T)p.r(T)}|RNA2{r(U)p.r(C)p.r(G)p.r(U)p.r(U)p.r(U)p.r(C)p.r(G)p.r(U)p.r(C)p.r(C)p.r(U)p.m(U)p.r(A)p.r(C)p.r(G)p.r(A)p.r(G)p.r(A)p.r(T)p.r(T)}$$$RNA1{StrandType:ss}|RNA2{StrandType:as}$	52
RNA1{m(A)p.r(A)p.m(C)p.r(A)p.m(G)p.r(U)p.m(C)p.r(C)p.m(U)p.r(U)p.r(A)p.m(G)p.r(C)p.m(U)p.r(A)p.r(C)p.m(G)p.r(C)p.r(U)p.r(T)p.r(T)}|RNA2{r(A)p.r(G)p.r(C)p.r(G)p.r(U)p.r(A)p.r(G)p.r(C)p.r(U)p.r(A)p.r(A)p.r(G)p.r(G)p.r(A)p.r(C)p.r(U)p.r(G)p.r(U)p.r(U)p.r(T)p.r(T)}$$$RNA1{StrandType:ss}|RNA2{StrandType:as}$	35
